Data: ChEMBL document CHEMBL2177083, “Enhanced in vitro biological activity of synthetic 2-(2-pyridyl) ethyl isothiocyanate compared to natural 4-(methylsulfinyl) butyl isothiocyanate” (J Med Chem, 2012)
The source made the active and inactive calls. No cut-off for these calls is given here.

Key:
PNT1A [1] = assay: Increase in cytokine-cytokine receptor interaction related gene expression in human PNT1A cells at 10 uM incubated for 8 hrs by Affymetrix human exon array relative to untreated control; type: functional
Caco-2 = assay: Cytotoxicity against human Caco2 cells incubated for 24 hrs by WST1 dye reduction assay; conditions: Caco-2, 24 h
PC-3 [2] = assay: Cytotoxicity against human PC3 cells incubated for 24 hrs by WST1 dye reduction assay; conditions: PC-3, 24 h
PNT1A [3] = assay: Increase in systemic lupus erythematosus related gene expression in human PNT1A cells at 10 uM incubated for 8 hrs by Affymetrix human exon array relative to untreated control; type: functional
PC-3 [4] = conditions: Homo sapiens, 25 uM
Description: Inhibition of cell proliferation of human PC3 cells at 25 uM incubated for 24 hrs by BrdU incorporation assay

HepG2 = assay: Cytotoxicity against human HepG2 cells incubated for 24 hrs by WST1 dye reduction assay; conditions: HepG2, 24 h
DU-145 = assay: Cytotoxicity against human DU145 cells incubated for 24 hrs by WST1 dye reduction assay; conditions: DU-145, 24 h
[5] = Binding affinity to insulin B chain N-terminal pentapeptide assessed as compound-insulin adduct formation by LC-MS method
[6] = Binding affinity to insulin A chain N-terminal pentapeptide assessed as compound-insulin adduct formation by LC-MS method
[7] = Induction of p21 protein expression in human PNT1A cells at 10 uM incubated for 8 hrs by Western blotting; type: cell-based
PNT1A [8] = assay: Increase in apoptosis related gene expression in human PNT1A cells at 10 uM incubated for 8 hrs by Affymetrix human exon array relative to untreated control; type: functional
[9] = Antiproliferative activity against human PNT1A cells at 50 uM incubated for 24 hrs by BrdU incorporation assay; type: cell-based
PC-3 [10] = assay: Increase in epithelial cell signaling in Helicobacter pylori infection related gene expression in human PC3 cells at 10 uM incubated for 8 hrs pre-treated for 1 hr with 50 uM PI3K inhibitor LY294002 by Affymetrix human exon array relative to untreated control; type: functional
PC-3 [11] = assay: Inhibition of cell proliferation of human PC3 cells at 10 uM incubated for 24 hrs by BrdU incorporation assay; type: functional; conditions: PC-3, 24 h
PC-3 [12] = assay: Increase in chronic myeloid leukemia related gene expression in human PC3 cells at 10 uM incubated for 8 hrs by Affymetrix human exon array relative to untreated control; type: functional
PC-3 [13] = assay: Increase in apoptosis gene expression in human PC3 cells at 10 uM incubated for 8 hrs by Affymetrix human exon array relative to untreated control; type: functional
PC-3 [14] = assay: Increase in glycolysis/gluconeogenesis related gene expression in human PC3 cells at 10 uM incubated for 8 hrs by Affymetrix human exon array relative to untreated control; type: functional
PC-3 [15] = assay: Increase in lysine degradation related gene expression in human PC3 cells at 10 uM incubated for 8 hrs by Affymetrix human exon array relative to untreated control; type: functional
PC-3 [16] = assay: Increase in DNA replication related gene expression in human PC3 cells at 10 uM incubated for 8 hrs by Affymetrix human exon array relative to untreated control; type: functional
PNT1A [17] = assay: Increase in glutathione metabolism related gene expression in human PNT1A cells at 10 uM incubated for 8 hrs by Affymetrix human exon array relative to untreated control; type: functional
PNT1A [18] = assay: Increase in axon guidance related gene expression in human PNT1A cells at 10 uM incubated for 8 hrs by Affymetrix human exon array relative to untreated control; type: functional
PC-3 [19] = assay: Increase in small cell lung cancer related gene expression in human PC3 cells at 10 uM incubated for 8 hrs by Affymetrix human exon array relative to untreated control; type: functional
PC-3 [20] = assay: Increase in alanine and aspartate metabolism related gene expression in human PC3 cells at 10 uM incubated for 8 hrs by Affymetrix human exon array relative to untreated control; type: functional
PC-3 [21] = assay: Increase in aminoacyl-tRNA biosynthesis related gene expression in human PC3 cells at 10 uM incubated for 8 hrs by Affymetrix human exon array relative to untreated control; type: functional
PC-3 [22] = assay: Increase in systemic lupus erythematosus related gene expression in human PC3 cells at 10 uM incubated for 8 hrs by Affymetrix human exon array relative to untreated control; type: functional
PC-3 [23] = assay: Increase in one carbon pool by folate related gene expression in human PC3 cells at 10 uM incubated for 8 hrs by Affymetrix human exon array relative to untreated control; type: functional
PC-3 [24] = assay: Increase in base excision repair related gene expression in human PC3 cells at 10 uM incubated for 8 hrs by Affymetrix human exon array relative to untreated control; type: functional
PC-3 [25] = assay: Increase in prostate cancer related gene expression in human PC3 cells at 10 uM incubated for 8 hrs by Affymetrix human exon array relative to untreated control; type: functional
PC-3 [26] = assay: Increase in p53 signaling pathway related gene expression in human PC3 cells at 10 uM incubated for 8 hrs by Affymetrix human exon array relative to untreated control; type: functional
PC-3 [27] = assay: Increase in ABC transporters related gene expression in human PC3 cells at 10 uM incubated for 8 hrs by Affymetrix human exon array relative to untreated control; type: functional
PC-3 [28] = assay: Increase in glioma related gene expression in human PC3 cells at 10 uM incubated for 8 hrs by Affymetrix human exon array relative to untreated control; type: functional
PC-3 [29] = assay: Increase in colorectal cancer related gene expression in human PC3 cells at 10 uM incubated for 8 hrs by Affymetrix human exon array relative to untreated control; type: functional
PNT1A [30] = assay: Increase in glycine, serine, and threonine metabolism related gene expression in human PNT1A cells at 10 uM incubated for 8 hrs by Affymetrix human exon array relative to untreated control; type: functional
PC-3 [31] = assay: Induction of p21 protein expression in human PC3 cells at 10 uM incubated for 8 hrs by Western blotting in presence of 50 uM PI3K inhibitor LY294002 relative to untreated control; type: functional
PC-3 [32] = assay: Increase in TGF-beta signaling pathway related gene expression in human PC3 cells at 10 uM incubated for 8 hrs by Affymetrix human exon array relative to untreated control; type: functional
PC-3 [33] = assay: Increase in pyrimidine metabolism related gene expression in human PC3 cells at 10 uM incubated for 8 hrs by Affymetrix human exon array relative to untreated control; type: functional
PC-3 [34] = assay: Increase in homologous recombination related gene expression in human PC3 cells at 10 uM incubated for 8 hrs by Affymetrix human exon array relative to untreated control; type: functional
PC-3 [35] = assay: Increase in nucleotide excision repair related gene expression in human PC3 cells at 10 uM incubated for 8 hrs by Affymetrix human exon array relative to untreated control; type: functional
PC-3 [36] = assay: Increase in cell cycle related gene expression in human PC3 cells at 10 uM incubated for 8 hrs by Affymetrix human exon array relative to untreated control; type: functional
PC-3 [37] = assay: Increase in ErbB signaling pathway related gene expression in human PC3 cells at 10 uM incubated for 8 hrs by Affymetrix human exon array relative to untreated control; type: functional
PC-3 [38] = assay: Increase in mismatch repair related gene expression in human PC3 cells at 10 uM incubated for 8 hrs by Affymetrix human exon array relative to untreated control; type: functional
PC-3 [39] = assay: Induction of p21 protein expression in human PC3 cells at 50 uM incubated for 8 hrs by Western blotting relative to untreated control; type: functional, cell-based
[40] = Induction of p21 protein expression in human PNT1A cells at 50 uM incubated for 8 hrs by Western blotting; type: cell-based

Structure (SMILES): C[S+]([O-])CCCCN=C=S (stereo not drawn) [SULFORAPHANE]
- fold change (FC) (PNT1A [1]): 3.3
- IC50 (Caco-2): 79.8 µM
- IC50 (PC-3 [2]): 32.4 µM
- fold change (FC) (PNT1A [3]): 4.3
- inhibition (PC-3 [4]): Active
- IC50 (HepG2): 24.9 µM
- IC50 (DU-145): 13.8 µM
- Activity [5]: Active
- Activity [6]: Active
- Activity [7]: Non-toxic
- fold change (FC) (PNT1A [8]): 4.8
- Activity [9]: Non-toxic

Structure (SMILES): S=C=NCCc1ccccn1
- fold change (FC) (PC-3 [10]): 1.6
- inhibition at 10 µM (PC-3 [11]): > 80%
- fold change (FC) (PC-3 [12]): 1.9
- IC50 (Caco-2): 15.2 µM
- IC50 (PC-3 [2]): 12.8 µM
- fold change (FC) (PC-3 [13]): 1.9
- fold change (FC) (PC-3 [14]): 1.6
- fold change (FC) (PNT1A [3]): 3.6
- fold change (FC) (PC-3 [15]): 1.8
- fold change (FC) (PC-3 [16]): 3.1
- fold change (FC) (PNT1A [17]): 2.8
- IC50 (HepG2): 15.3 µM
- fold change (FC) (PNT1A [18]): 1.9
- IC50 (DU-145): 4.44 µM
- fold change (FC) (PC-3 [19]): 1.6
- fold change (FC) (PC-3 [20]): 2
- fold change (FC) (PC-3 [21]): 1.8
- fold change (FC) (PC-3 [22]): 1.8
- fold change (FC) (PC-3 [23]): 2.8
- fold change (FC) (PC-3 [24]): 2.1
- Activity [5]: Active
- Activity [6]: Active
- fold change (FC) (PC-3 [25]): 1.9
- fold change (FC) (PC-3 [26]): 2.1
- fold change (FC) (PC-3 [27]): 1.6
- fold change (FC) (PC-3 [28]): 1.9
- Activity [7]: Non-toxic
- fold change (FC) (PC-3 [29]): 1.5
- fold change (FC) (PNT1A [30]): 3.1
- fold change (FC) (PC-3 [31]): 8
- fold change (FC) (PC-3 [32]): 1.5
- fold change (FC) (PC-3 [33]): 1.6
- fold change (FC) (PNT1A [8]): 2.5
- Activity [9]: Non-toxic
- fold change (FC) (PC-3 [34]): 2.4
- fold change (FC) (PC-3 [35]): 1.8
- fold change (FC) (PC-3 [36]): 2.6
- fold change (FC) (PC-3 [37]): 1.6
- fold change (FC) (PC-3 [38]): 2.6

Structure (SMILES): O=c1cc(N2CCOCC2)oc2c(-c3ccccc3)cccc12 [LY-294002]
- Activity (PC-3 [39]): Active
- Activity [40]: Toxic
